Test results taken from article PMC9916441, “Resveratrol Derivative Exhibits Marked Antiproliferative Actions, Affecting Stemness in Pancreatic Cancer Cells” (International Journal of Molecular Sciences, 2023).
Where two headings read alike, the source gives them in different places.

Columns and labels:
[1] = tested on: BxPC-3; assay: Colony formation assay; assay type: cell-based, human; conditions: BxPC-3, 20 µM, 72 h treatment
Procedure: (§1) A colony formation assay was performed as previously described. Briefly, the PC cells were seeded in 6-well plates, incubated for 24 h, and then treated for 72 h with 20 μM DF5, DF12, and RSV or with vehicle (DMSO) as indicated. After 4 days, following methanol fixation and crystal violet staining, the colonies of at least 30 cells were counted.

[2] = tested on: Capan-2; assay: Colony formation assay; assay type: cell-based, human; conditions: Capan-2, 20 µM, 72 h treatment
Procedure: as §1

[3] = tested on: AsPC-1; assay: Colony formation assay; assay type: cell-based, human; conditions: AsPC-1, 20 µM, 72 h treatment
Procedure: as §1

[4] = Human plasma stability assay; assay type: in vitro ADME; conditions: 80% human plasma, 37 °C
Procedure: The in vitro enzymatic stabilities of DF5 were assessed in human plasma and simulated gastric and intestinal fluids (SGF and SIF, respectively). For the human plasma stability assay, 10 μL of a 10^-4 M stock solution of DF5 in acetonitrile was added to a pre-heated (37 °C) plasma fraction and diluted with phosphate buffer (pH 7.4, 0.02 M) to obtain a final volume of 1 mL (80% plasma). The samples (50 µL) were extracted at various times and 200 µL of cold acetonitrile containing 0.5% v/v of formic acid were employed to stop the enzymatic reaction. After centrifugation for 10 min at 5000 g, the supernatant was removed and analyzed using HPLC [57].

[5] = Enzymatic stability in simulated intestinal fluid (SIF) with pancreatin; assay type: in vitro ADME; conditions: SIF pH 6.8 with pancreatin, 37 °C
Procedure: (§2) The SGF and SIF, containing pepsin and pancreatin, respectively, were prepared following the USP specifications. The reactions were carried out in a shaking water bath at 37 °C. The drug stock solution (10 μL of a 10^−4 M) was added to the preheated gastrointestinal fluids and, at fixed time points (0, 15, 30, and 60 min for SGF and 0, 60, 120, and 180 min for SIF), 20 μL of the media were mixed with 200 μL of cold acetonitrile containing 0.5% v/v of formic acid. The samples were centrifuged for 10 min at 5000× g and the supernatants were analyzed using HPLC. The relative difference (RD%) was used to predict the amount of compound decomposed in the presence of gastrointestinal fluids.

[6] = tested on: BxPC-3; assay: Apoptosis assay, annexin-V staining by flow cytometry; assay type: cell-based, human; conditions: 24 h
Procedure: (§3) The apoptosis assay was performed essentially as previously described. the analyses were performed using a CytoFLEX flow cytometer, using the FL1 detector in linear mode and the CytoExpert software (Beckmann Coulter, Milano, Italy).

[7] = tested on: Capan-2; assay: as above; assay type: cell-based, human; conditions: 24 h
Procedure: as §3

[8] = tested on: AsPC-1; assay: as above; assay type: cell-based, human; conditions: 24 h
Procedure: as §3

[9] = tested on: Cyclin D3; assay: Western blot of cyclin D3 in PC cell lines; assay type: cell-based, human; conditions: 50 μM
Procedure: (§4) The PC cell lines treated with 50 μM DF5, RSV, or with vehicle (DMSO) were lysed in a cell lysis buffer containing PMSF, protease inhibitors cocktails, and phosphatase inhibitors. The protein lysate quantification and immunoblot analyses were performed as previously described.

[10] = Enzymatic stability in simulated gastric fluid (SGF) with pepsin; assay type: in vitro ADME; conditions: SGF pH 1.2 with pepsin, 37 °C
Procedure: as §2

[11] = tested on: cyclin B1/CDK1 complex; assay: Western blot of cyclin B1, Cdc2/Cdk1 and p-Cdc2 (Thr161) in PC cell lines; assay type: cell-based, human; conditions: 50 μM
Procedure: as §4

[12] = PAMPA-GI permeability; assay type: in vitro ADME; conditions: for Papp at 16 h, 500 µM: PAMPA, 16 h incubation, read-out: Permeability, Pe
Procedure: A PAMPA was used to evaluate the passive intestinal absorption of DF5. The system consisted in a 96-well, MultiScreen-IP PAMPA filter plate (donor plate) equipped with a PVDF membrane filter and a 96-well PTFE acceptor plate. The PVDF membrane was coated with 5 µL of a 2% w/v lecithin in n-dodecane solution. […] Donor and acceptor solutions, both containing 5% of DMSO v/v%, were employed to avoid precipitation of the drug. The system was assembled placing the drug-filled donor plate into the acceptor plate and incubated at room temperature for 16 h. Each solution was analyzed using HPLC and the permeability (Pe, nm/s) was determined as previously reported.

[13] = Water solubility; assay type: physicochemical
Procedure: The solubility was determined as previously described. The calculated LogP (cLogP) value was determined using ACD LogP software package, version 4.55 (Advanced Chemistry Development Inc., Toronto, ON, Canada).

[14] = tested on: AsPC-1, BxPC-3 and Capan-2 PC cell lines; assay: Cell cycle analysis by flow cytometry; assay type: cell-based, human; conditions: 50 μM, 24 h
Procedure: To perform the cell cycle analysis, the PC cells (3 × 10^5) were collected, fixed in 70% cold ethanol, and kept at 4 °C overnight. The collected cells were incubated at 4 °C overnight in 5 μg/mL PI (final concentration) and 100 μg/mL RNAse (final concentration). The cell cycle profiles were analyzed as previously described.

[15] = tested on: normal HFF-1 fibroblast cells; assay: MTT cell viability assay on normal fibroblasts; assay type: cell-based, human; conditions: 72 h
Procedure: The cell viability was assessed using MTT assay, as previously described. Briefly, the cells were seeded in 96-well plates (4 × 10^3 cells/well) and were treated for 72 h with different concentrations of RSV, DF5, and DF12. The IC50 values were extrapolated from dose–response curves and calculated using the CompuSyn software (https://www.combosyn.com/). The selectivity index (SI) values were calculated as ratios between the IC50 values of compounds in normal HFF-1 fibroblast cells and the IC50 values of the same compounds in the PC cell lines.

[16] = tested on: poly-(ADP-ribose) polymerase (PARP); assay: Western blot of PARP cleavage in PC cell lines; assay type: cell-based, human; conditions: vs untreated cells
Procedure: as §4

Cc1ccc(/C=C/c2ccc(O)cc2)cc1 [DF5]
effect on clonogenicity (colony formation) [1]: totally abolish colony formation
effect on clonogenicity (colony formation) [2]: more drastic, prominent, and consistent effects on PC cell clonogenicity
effect on clonogenicity (colony formation) [3]: totally abolish colony formation
stability in human plasma [4]: stable (stable: RD% < 5%)
RD% (relative difference) ([5]; 60 min): 8.12%
RD% (relative difference) ([5]; 120 min): 9.20%
RD% (relative difference) ([5]; 180 min): 9.36%
apoptosis induction (Annexin V+ cells) ([6]; BxPC-3, 20 μM): neither compound affected apoptosis
apoptosis induction (Annexin V+ cells) ([6]; BxPC-3, 50 μM): significant induction of apoptosis
apoptosis induction (Annexin V+ cells) ([7]; Capan-2, 20 μM): statistically significant apoptosis
apoptosis induction (Annexin V+ cells) ([7]; Capan-2, 50 μM): significant induction of apoptosis
apoptosis induction (Annexin V+ cells) ([8]; AsPC-1, 20 μM): statistically significant apoptosis
apoptosis induction (Annexin V+ cells) ([8]; AsPC-1, 50 μM): significant induction of apoptosis
effect on cyclin D3 expression [9]: clear-cut reduction or even an abolishment in the expression of cyclin D3
RD% (relative difference) ([10]; 15 min): 4.36%
RD% (relative difference) ([10]; 30 min): 7.10%
RD% (relative difference) ([10]; 60 min): 8.87%
effect on expression of the cyclin B1/CDK1 complex ([11]; AsPC-1 and Capan-2, also Cdc2/CDK1 dephosphorylation at Thr-161): reduction in the expression of the cyclin B1/CDK1 complex
effect on expression of the cyclin B1/CDK1 complex ([11]; BxPC-3): much less evident
Papp at 16 h, 500 µM ([12]; pH 5 (donor and acceptor)): 6.02 ×10⁻⁶ cm/s
Papp at 16 h, 500 µM ([12]; pH 6.5 (donor and acceptor)): 9 ×10⁻⁶ cm/s
Papp at 16 h, 500 µM ([12]; pH 7.4 (donor and acceptor)): 2.59 ×10⁻⁶ cm/s
Classification (GI permeation) ([12]; pH 5): Pe+ (Pe+ (indicative of high GI permeation): Pe (nm s^−1) > 10)
Classification (GI permeation) ([12]; pH 6.5): Pe+ (Pe+ (indicative of high GI permeation): Pe (nm s^−1) > 10)
Classification (GI permeation) ([12]; pH 7.4): Pe+ (Pe+ (indicative of high GI permeation): Pe (nm s^−1) > 10)
solubility ([13]; read-out: Classification (water solubility)): < 100 µg/mL
solubility ([13]; read-out: Water Solubility): < 10 µg/mL
effect on cells in G0/G1 phase ([14]; across the three PC cell lines, vs untreated cells): statistically significant accumulation of cells at the G0/G1 phase
effect on cells in G2/M phase ([14]; three PC cell lines, in Capan-2 it did not reach statistical significance): drastic depletion of cells in the G2/M phase
toxicity against normal HFF-1 fibroblast cells ([15]; up to 100 μM): negligible toxicity
IC50 ([15]; Homo sapiens, normal HFF-1 fibroblasts, 100 μM highest concentration used): > 100 µM
effect on cleaved:uncleaved PARP ratio ([16]; AsPC-1, 50 μM): strong increase in cleaved:uncleaved PARP ratios
effect on cleaved:uncleaved PARP ratio ([16]; BxPC-3, 50 μM): minimal effects on the PARP cleavage ratio
effect on cleaved:uncleaved PARP ratio ([16]; Capan-2, 50 μM): strong increase in cleaved:uncleaved PARP ratios
